The values that follow come from paper PMC11071649, “Synthesis and Selective Anticancer Activity Evaluation of 2-phenylacrylonitrile Derivatives as Tubulin Inhibitors” (Current Medicinal Chemistry, 2024).

SMILES strings stand for the structures.

What all share (type): cell-based, human
The test system of assay [1] is BEL-7402 liver cancer cell. The experiment in a line: MTT anti-proliferative assay, BEL-7402. To be noted: MTT, 48 h. As for the experimental part: (§1) The anti-proliferation activities of the synthesized analogs were assessed by an in vitro MTT assay conducted on thirteen human cell lines. Their cytotoxic activities were evaluated by measuring the inhibition of net cell growth. […]
(§2) 1.6. Cell lines and cell culture
(§3) MTT was purchased from Sigma-Aldrich Co. (St. Louis, MO, USA). The PI and Annexin V-FITC apoptosis detection kit were purchased from Invitrogen (Eugene, OR, USA). All human cell lines were used in this study. […]
(§4) cell, MCF-7 breast cancer cell, MCF-10A normal breast cell, Raji B lymphoblastoid cell and diffuse large B-cell lymphoma SU-DHL-10 cell were initially purchased from American Type Culture Collection (ATCC, Manassas, Virginia). media, DMEM, and FBS were provided from Gibco Company.
(§5) 1.7. Cell growth inhibition assay (MTT assay)
(§6) The experiment was carried out according to the method of reference. Briefly, cells were plated in 96-well plates at a den- […]
(§7) the anti-proliferative activities were determined by MTT assay. […]
(§8) (Becton-Dickinson, Franklin Lakes, NJ). […]
For orientation: Tetrazolium dyes change colour on reduction, which living cells bring about.

The subject of assay [2] is HeLa cervical cancer cell. The experiment in a line: MTT anti-proliferative assay, HeLa. The note with it: for IC50: MTT, 48 h. As for the experimental part: as §1, §2, §3, §4, §5, §6, §7, §8
Assay [3] has as its system diffuse large B-cell lymphoma SU-DHL-10 cell. As to the kind of experiment: MTT anti-proliferative assay, SU-DHL-10. To be noted: for IC50: MTT, 48 h, read-out: IC50 SU-DHL-10. As for the experimental part:
as §1, §2, §3, §4, §5, §6, §7, §8

For assay [4], the system named is Raji B lymphoblastoid cell. The experiment in a line: MTT anti-proliferative assay, Raji. The note with it: for IC50: MTT, 48 h, read-out: IC50 Raji. The procedure:
as §1, §2, §3, §4, §5, §6, §7, §8

The subject of another assay is AGS gastric cancer cell. As to the kind of experiment: MTT anti-proliferative assay, AGS. To be noted: for IC50: MTT, 48 h. The procedure:
as §1, §2, §3, §4, §5, §6, §7, §8

Another assay relates to A549 lung cancer cell. As to the kind of experiment: MTT anti-proliferative assay, A549. The note with it: for IC50: MTT, 48 h. The procedure:
as §1, §2, §3, §4, §5, §6, §7, §8

The subject of assay [5] is HCT116 colectal cancer cell. The experiment in a line: MTT anti-proliferative assay, HCT116. To be noted: for IC50: MTT, 48 h, read-out: IC50 HCT-116. As for the experimental part: as §1, §2, §3, §4, §5, §6, §7, §8
The subject of assay [6] is MGC-803 late stage differentiation gastric cancer cell. As to the kind of experiment: MTT anti-proliferative assay, MGC-803. The note with it: for IC50: MTT, 48 h. As for the experimental part:
as §1, §2, §3, §4, §5, §6, §7, §8

In assay [7] the test system is MCF-10A normal breast cell. The experiment in a line: MTT assay, MCF-10A normal cells. The note with it: 48 h. As for the experimental part: as §1, §2, §3, §4, §5, §6, §7, §8
The subject of the next assay is HepG2 hepatoma cell. The experiment in a line: MTT anti-proliferative assay, HepG2. The note with it: for IC50: MTT, 48 h, read-out: IC50 HepG-2. The procedure: as §1, §2, §3, §4, §5, §6, §7, §8
Assay [8] deals with SGC-7901 early differentiation gastric cancer cell. The experiment in a line: MTT anti-proliferative assay, SGC-7901. The note with it: for IC50: MTT, 48 h. The procedure:
as §1, §2, §3, §4, §5, §6, §7, §8

The test system of the next assay is MCF-7 breast cancer cell. As to the kind of experiment: MTT anti-proliferative assay, MCF-7. To be noted: for IC50: MTT, 48 h. The procedure:
as §1, §2, §3, §4, §5, §6, §7, §8

A further assay concerns L-02 normal liver cell. As to the kind of experiment: MTT assay, L-02 normal cells. To be noted: 48 h. As for the experimental part: as §1, §2, §3, §4, §5, §6, §7, §8

The IC50 is the concentration that gives 50% inhibition. Turning to `N#C/C(=C\c1ccccc1)c1ccc(OC(F)(F)F)cc1` [Compound 1a2a], the IC50 (in [1]; in [2]; in assay [3]; in [4]; in the assay on AGS gastric cancer cell; in the assay on A549 lung cancer cell) was > 100 µM in each case. Also, the IC50 (in assay [5]; in [6]; in [7]; with HepG2 hepatoma cell; in [8]; in the assay with MCF-7 breast cancer cell) was > 100 µM in each case. The IC50 in the assay on L-02 normal liver cell is > 100 µM.

With `N#C/C(=C\c1ccc(F)cc1)c1ccc(OC(F)(F)F)cc1` [Compound 1a2b], the half-maximal inhibitory concentration (IC50) in assay [1] is 15 ± 2.7 µM; in assay [3] it was 38.8 ± 3.7 µM; in assay [4] it was 49 ± 7.4 µM; in the assay with AGS gastric cancer cell, 13.2 ± 3.3 µM; in the assay on A549 lung cancer cell, > 100 µM; in assay [5], 23.5 ± 4.6 µM. Moreover, the IC50 in assay [6] was 37.4 ± 5.8 µM; in [7] it was > 100 µM; in the assay with HepG2 hepatoma cell, > 100 µM; in assay [8] it was > 100 µM; with MCF-7 breast cancer cell, > 100 µM; with L-02 normal liver cell, > 100 µM.

Regarding `N#C/C(=C\c1ccc(Cl)cc1)c1ccc(OC(F)(F)F)cc1` [Compound 1a2c], the IC50 in assay [1] is > 100 µM; in [2], 72.3 ± 2.4 µM; in assay [3] it was > 100 µM; in assay [4], 55.1 ± 3.2 µM; in the assay with AGS gastric cancer cell, 18.6 ± 3 µM; in the assay with A549 lung cancer cell, 65.8 ± 8.9 µM. Also, the half-maximal inhibitory concentration (IC50) was 20.2 ± 1.7 µM in assay [5]; 35.2 ± 2.8 µM in assay [6]; > 100 µM in assay [7]; 20.7 ± 1.4 µM in the assay on HepG2 hepatoma cell; 56.4 ± 9.7 µM in assay [8]; 55.2 ± 2.8 µM in the assay with MCF-7 breast cancer cell. In the assay with L-02 normal liver cell, the IC50 was > 100 µM. Besides, in assay [2], the “SI (selectivity index), IC50 (L-02)/IC50 (HeLa)” value is > 1.3. In addition, in assay [4], the “SI (selectivity index), IC50 (L-02)/IC50 (Raji)” value is reported as > 1.8. Further, the “SI (selectivity index), IC50 (L-02)/IC50 (AGS)” value (“SI (selectivity index) … (AGS)” for short) in the assay with AGS gastric cancer cell is > 5.3. Besides, the “SI (selectivity index), IC50 (L-02)/IC50 (A549)” value in the assay with A549 lung cancer cell is on record as > 1.5. Besides, the “SI (selectivity index), IC50 (L-02)/IC50 (HCT-116)” value in assay [5] was > 4.9. The “SI (selectivity index), IC50 (L-02)/IC50 (MGC-803)” value in assay [6] is reported as > 2.8. The “SI (selectivity index), IC50 (L-02)/IC50 (HepG-2)” value in the assay on HepG2 hepatoma cell was > 4.8. Further, in [8], the “SI (selectivity index), IC50 (L-02)/IC50 (SGC-7901)” value is > 1.7. For the same compound, in the assay with MCF-7 breast cancer cell, the “SI (selectivity index), IC50 (MCF-10A)/IC50 (MCF-7)” value was > 1.8.

Take `N#C/C(=C\c1ccc(Br)cc1)c1ccc(OC(F)(F)F)cc1` [Compound 1a2d]: the IC50 is > 100 µM in assay [1]; 87.3 ± 4.1 µM in assay [2]; 73.5 ± 17.3 µM in assay [3]; 64.9 ± 1.5 µM in assay [4]; 19.6 ± 2.9 µM with AGS gastric cancer cell; > 100 µM in the assay with A549 lung cancer cell. The half-inhibitory concentration (IC50) in [5] was 25.4 ± 6.8 µM; in assay [6] it was > 100 µM; in [7], > 100 µM; in the assay on HepG2 hepatoma cell, 24.3 ± 3.4 µM; in assay [8] it was > 100 µM; with MCF-7 breast cancer cell, > 100 µM. Also, in the assay on L-02 normal liver cell, the IC50 is > 100 µM. In [2], the “SI (selectivity index), IC50 (L-02)/IC50 (HeLa)” value is > 1.1. The “SI (selectivity index), IC50 (L-02)/IC50 (SU-DHL-10)” value in assay [3] was > 1.3. The “SI (selectivity index), IC50 (L-02)/IC50 (Raji)” value in assay [4] is recorded as > 1.5. Further, the “SI (selectivity index) … (AGS)” value in the assay with AGS gastric cancer cell is given as > 5.0. Also, in [5], the “SI (selectivity index), IC50 (L-02)/IC50 (HCT-116)” value was > 3.9. In the assay on HepG2 hepatoma cell, the “SI (selectivity index), IC50 (L-02)/IC50 (HepG-2)” value is > 4.1.

On to `Cc1ccc(/C=C(\C#N)c2ccc(OC(F)(F)F)cc2)cc1` [Compound 1a2e], for which the IC50 is > 100 µM in [1]; > 100 µM in [2]; > 100 µM in assay [3]; > 100 µM in assay [4]; 30.8 ± 7.9 µM with AGS gastric cancer cell; > 100 µM in the assay with A549 lung cancer cell. For the same compound, the IC50 (in assay [5]; in [6]; in assay [7]; in the assay with HepG2 hepatoma cell; in [8]; in the assay on MCF-7 breast cancer cell) was > 100 µM in each case. For the same compound, the IC50 in the assay with L-02 normal liver cell is > 100 µM. The “SI (selectivity index) … (AGS)” value in the assay with AGS gastric cancer cell is reported as > 3.2.
